Experiments:
[1] = test system: CD8+ splenocytes restimulated with MELOE-136-44; assay: Immunization of transgenic mice with SLP, CD8 ELISpot-IFN-g; format: in vivo, HLA-DRB1*0101/HLA-A*0201 transgenic mice; conditions: INFg-ELIspot; positive if spots more than twice background and above ten; s.c. 100 μg prime, 50 μg boosts, IFA + polyI:C; FIG. 7A/B
Protocol: CD8+ splenocytes from immunized mice were tested by INFg-ELIspot following restimulation with the short epitope MELOE-136-44. Mice were considered positive if the number of spots after restimulation were more than twice the background level and above ten spots.
HLA-DRB1*0101/HLA-A*0201 transgenic mice (A2/DR1 mice) were used to evaluate immunogenicity of peptides. Group of 5 female A2/DR1 mice (6 to 10 weeks) were immunized subcutaneously with 100 μg of each peptides emulsified in incomplete Freund adjuvant (v/v) plus 50 μg of polyI:C. At day 14 and day 28 boost vaccinations were performed with 50 μg of each peptide along with the same adjuvants. All experiments were carried out according to the good laboratory practices defined by the animal experimentation Rules in France.
Specific immune responses were evaluated 10 days after the last boost by ELISpot-IFN-g (Diaclone, France). Briefly, freshly isolated splenocytes or CD8 positive T cells from spleen (CD8+ T Cell Isolation Kit, Miltenyi Biotec) were incubated (2.105 cells per well) during 15-20 hours in ELISpot plate in the presence of the class I MELOE-1 epitope (5 μg/ml final) or medium (X-vivo, as negative control) or PMA-ionomycin (positive control). Ex vivo CD4 T cell responses were evaluated on the CD8 negative fraction as above with the HLA-DRB1*0101-restricted epitope MELOE-113-27. […] Spot-forming cells were counted using the «C.T.L. Immunospot» system (Cellular Technology Ltd). Results were considered positive when the ELISPOT counts were >10 spots and above 2× the background (medium). (Dosset et al Clin Cancer Res, 2012)
Finally, we explored the immunogenicity of our SLP in vivo in HLA-DRB1*0101/HLA-A*0201 transgenic mice. Mice were immunized subcutaneously with 100 μg of SLP in IFA and poly I:C and boosted at D14 and D28 with 50 μg of SLP with the same adjuvants (see M&M). We focused on cross-presentation and thus assessed CD8 T cell responses by ELISpot-IFN-g after re-stimulation with the short MELOE-1136-44 epitope (SEQ ID NO:31) or with medium alone. A mouse was considered responder when ELIspots were above 10 and at least twice about background. A typical experiment is presented in FIG. 7 comparing immunization with SLP containing MELOE-113-27 (SEQ ID NO:21) and MELOE-136-44 (SEQ ID NO:31) with linker GGGG (SEQ ID NO:160) or LLSVGG (SEQ ID NO:9). Immunization with SLP containing GGGG (SEQ ID NO:160) generated moderate CD8 responses in 3 out of five mice while immunization with SLP with LLSVGG (SEQ ID NO:9) was efficient in all 5 mice with two mice showing robust CD8 responses. Previous experiments performed with the shorter linkers LLSV (SEQ ID NO:4) or LLSVG (SEQ ID NO:8) also supported the hypothesis that our synthetic linkers favored cross-presentation when compared to either the linker GGGG or the native sequence (Table 4). In contrast, CD4 responses evaluated ex vivo towards the HLA-DRB1*0101 epitope were very low (FIG. 7C).

SARC-A2-MELOE-1 cells = assay: Anti-tumor vaccination with aSLP; format: in vivo, A2/DR1 mice; conditions: day 36, threshold 50 mm^2; prime 100 μg day 6 plus adjuvant, boost 14 days later; 0/7 in untreated, p=0.0513
Protocol: The SARC-L1 cell line which spontaneously occurred in A2/DR1 mice was genetically modified to over-express HLA-A*0201 as previously described (Rangan et al Oncotarget, 2017). SARC-A2 cells were then transduced with a gammaretroviral dicistronic vector encoding the whole MELOE-1 antigen and, downstream of an IRES element, a puromycin N-acetyltransferase allowing selection of the transduced cells with puromycin (5 μg/mL). HLA-A*0201 expression was checked by flow cytometry. The capacity of the MELOE-1-transduced SARC-A2 (SARC-A2-MELOE-1) cells to present the A2-restricted MELOE-1 epitope was confirmed by their recognition by an HLA-A*0201-restricted T cell clone (data not shown).
A2/DR1 mice were subcutaneously injected with 2×10^5 SARC-A2-MELOE-1 cells in 100 μl in the right flank. The first vaccination with aSLP (100 μg in IFA, as above) or adjuvant alone or PBS started when tumor became detectable (around 10 mm2). […] Tumor growth was evaluated twice a week using a caliper and mice were euthanized when their tumor exceeded 300 mm^2. The efficiency of anti-tumor vaccination was evaluated by Fisher's exact test (α=0.5%).
To evaluate the anti-tumor potential of vaccination with aSLP, we used the previously described SARC-A2 cell line transduced with a cDNA encoding the whole MELOE-1 antigen. […] Mice were monitored until the end point at day 36. […]

[2] = test system: MELOE-1, HLA A*0201 restricted CD8 T cell clone

TSREQFLPSEGAACPPWLLSVGGTLNDECWPASL (Synthetic SLP) [SEQ ID NO: 87]
CD8 responses, positive mice, Exp#3 [1]: 5/5
mice in which tumor growth was inhibited (SARC-A2-MELOE-1 cells): 4/8
Fold change = EC50 (M) of MELOE-111-46/EC50 (M) SLP ([2]; SLP MELOE-113-27 xxxx MELOE-136-44, TNF-a response of CD8 T cell clone to SLP-loaded DC, range over independent experiments): 12-56
cross-presentation compared with full length MELOE-1 / native antigen (in words) ([2]; full length MELOE-1 as reference): the most efficiently processed and cross-presented

Reference: US12144851B2, “Vaccinal strategy” (INSERM (INSTITUT NATIONAL DE LA SANTÉ ET DE LA RECHERCHE …, priority 2018, dated 2024)
